From patent US20260217708A1, “FUSED BENZAZEPINE DERIVATIVES FOR USE IN THE TREATMENT OF CANCER AND EPILEPSY” (UCB BIOPHARMA SRL, priority 2023, published 2026)

Columns and labels:
system Xc^− [1] = target: T1, system Xc^− (Homo sapiens, UniProt Q9UPY5); assay: Cystine-induced glutamate release assay; assay type: cell-based; design: endogenous in cells; host or cells: H4 cells; settings: H4 cells, sodium-free HEPES buffer, 50 μM L-Cystine, 2 hours, Amplex Red glutamate readout; read-out: pIC50 Cystine-induced glutamate release assay (converted)
T1 sequence (Q9UPY5 1-501): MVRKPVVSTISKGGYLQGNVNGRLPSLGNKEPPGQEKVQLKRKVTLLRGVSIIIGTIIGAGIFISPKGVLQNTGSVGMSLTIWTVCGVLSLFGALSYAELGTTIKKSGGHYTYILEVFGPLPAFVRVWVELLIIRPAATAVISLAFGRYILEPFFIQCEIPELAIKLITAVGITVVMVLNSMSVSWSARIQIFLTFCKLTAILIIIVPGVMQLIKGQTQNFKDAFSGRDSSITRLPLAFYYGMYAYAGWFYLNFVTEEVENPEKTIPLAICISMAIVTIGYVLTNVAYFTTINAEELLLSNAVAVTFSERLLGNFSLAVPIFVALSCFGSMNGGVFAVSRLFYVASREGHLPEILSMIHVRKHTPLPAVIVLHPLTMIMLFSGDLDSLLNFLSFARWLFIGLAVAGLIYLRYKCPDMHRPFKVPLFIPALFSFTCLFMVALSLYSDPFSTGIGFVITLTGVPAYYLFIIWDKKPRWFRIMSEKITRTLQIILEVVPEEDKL
T1 sequence (P08195 1-529 partner): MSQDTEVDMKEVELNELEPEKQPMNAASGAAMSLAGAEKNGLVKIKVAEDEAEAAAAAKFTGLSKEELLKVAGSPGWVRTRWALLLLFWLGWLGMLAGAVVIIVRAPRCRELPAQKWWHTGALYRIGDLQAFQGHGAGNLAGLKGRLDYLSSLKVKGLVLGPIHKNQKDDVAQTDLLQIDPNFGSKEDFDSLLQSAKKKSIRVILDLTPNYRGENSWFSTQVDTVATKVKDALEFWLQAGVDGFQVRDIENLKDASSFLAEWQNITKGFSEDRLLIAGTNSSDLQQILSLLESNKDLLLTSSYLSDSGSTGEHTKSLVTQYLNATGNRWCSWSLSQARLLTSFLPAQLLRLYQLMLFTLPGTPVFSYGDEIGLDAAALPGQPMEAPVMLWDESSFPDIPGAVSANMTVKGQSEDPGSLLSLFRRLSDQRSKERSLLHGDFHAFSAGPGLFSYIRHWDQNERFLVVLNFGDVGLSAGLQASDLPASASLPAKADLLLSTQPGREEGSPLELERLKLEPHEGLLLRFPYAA
In short: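 IC50 (reported as pIC50) normalized to DMSO 1% and Erastin 50 μM controls, from Amplex Red fluorescence of glutamate exported into supernatant. H4 cells were washed into sodium-free buffer to exclude EAAT transport, then given compound with 50 μM L-cystine for 2 h in the incubator.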

system Xc^− [2] = target: T1, system Xc^−; assay: [^14C]L-Cystine uptake assay; assay type: cell-based; design: endogenous in cells; host or cells: H4 cells; settings: H4 cells, sodium-free HEPES buffer, 0.5 μM L-[14C]Cystine and 4.5 μM L-Cystine, 1 hour at 37° C.; read-out: pIC50 [^14C] L-Cystine uptake assay (converted)
In short: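 Compound effect is given as pIC50, taken between controls of 1% DMSO and 50 μM Erastin. Human H4 cells were pretreated 15 min with compound in sodium-free buffer, then took up 0.5 μM [14C]cystine with 4.5 μM cold cystine for 1 hour at 37° C, read by scintillation proximity counting.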

Compound | IC50 (system Xc^− [1]) [nM] | IC50 (system Xc^− [2]) [nM]
Cc1cc2c(c(F)n1)-c1ccn(C)c(=O)c1C(C)C(=O)N2CC(=O)Nc1ccc(Cl)c(F)c1 (stereo not shown) [#356, N-(4-chloro-3-fluoro-phenyl)-2-(3-fluoro-5,10,13-trimethyl-9,12-dioxo-4,8,13-triazatricyclo[9.4.0.0^2,7]pentadeca-1(11),2,4,6,14-pentaen-8-yl)acetamide] | 39.8 to 100 | 39.8 to 100
CC1C(=O)N(CC(=O)Nc2ccc(Cl)c(F)c2)c2cc(C#N)cc(F)c2-c2cccnc21 (single isomer, unassigned) [#310, N-(4-chloro-3-fluoro-phenyl)-2-[9-cyano-11-fluoro-5-methyl-6-oxo-5H-pyrido[2,3-d][1]benzazepin-7-yl]acetamide] | < 15.8 | < 15.8
COc1nc(C)cc2c1-c1cccnc1CC(=O)N2CC(=O)Nc1ccc(C(F)(F)F)nc1 [#79, 2-(3-methoxy-5-methyl-9-oxo-4,8,12-triazatri-cyclo[9.4.0.0^2,7]penta-deca-1(11),2,4,6,12,14-hexaen-8-yl)-N-[6-(tri-fluoromethyl)-3-pyridyl] acetamide] | 100 to 501 | 100 to 501
COc1ncc2c(c1C)-c1cccnc1CC(=O)N2CC(=O)Nc1ccc(C(F)(F)F)cc1 [#67, 2-(4-methoxy-3-meth-yl-9-oxo-5,8,12-triaza-tricyclo[9.4.0.0^2,7]pentadeca-1(11),2(7), 3,5,12,14-hexaen-8-yl)-N-[4-(trifluoromethyl)-phenyl]acetamide] | 39.8 to 100 | 100 to 501
Cc1cc2c(c(F)n1)-c1ccc(C)nc1C(C)C(=O)N2CC(=O)Nc1ccc(C(F)(F)F)cc1 (stereo not shown) [#93, 2-(3-fluoro-5,10,13-trimethyl-9-oxo-4,8,12-triazatricyclo[9.4.0.0^2,7]pentadeca-1(11),2(7),3,5,12,14-hexaen-8-yl)-N-[4-(trifluoromethyl)phenyl]acetamide] | 39.8 to 100 | 15.8 to 39.8
CCc1nc(C)cc2c1-c1ccccc1CC(=O)N2CC(=O)Nc1ccc(C(F)(F)F)cc1 [#72, 2-(1-ethyl-3-methyl-6-oxo-7H-pyrido[4,3-d][3]benzazepin-5-yl)-N-[4-(trifluoromethyl)phenyl]acetamide] | 39.8 to 100 | 15.8 to 39.8
Cc1cc2c(c(Cl)n1)-c1ccnn1C(C)C(=O)N2CC(=O)Nc1ccc(C(F)F)cc1 (single isomer, unassigned) [#386, 2-[14-chloro-7,12-dimethyl-8-oxo-5,6,9,13-tetrazatricyclo[8.4.0.0^2,6]tetradeca-1(14),2,4,10,12-pentaen-9-yl]-N-[4-(difluoromethyl)phenyl]acetamide] | < 15.8 | < 15.8
Cc1cc2c(cn1)-c1cccnc1C(C)C(=O)N2CC(=O)Nc1ccc(Cl)c(F)c1 (single isomer, unassigned) [#251, N-(4-chloro-3-fluoro-phenyl)-2-[5,10-dimethyl-9-oxo-4,8,12-triazatricyclo[9.4.0.0^2,7]pentadeca-1(15),2,4,6,11,13-hexaen-8-yl]acetamide] | < 15.8 | < 15.8
Cc1cc2c(c(F)n1)-c1cccnc1C(O)C(=O)N2CC(=O)Nc1ccc(C(F)(F)F)cc1 (stereo not shown) [#94, 2-(3-fluoro-10-hydroxy-5-methyl-9-oxo-4,8,12-triazatricyclo[9.4.0.0^2,7]pentadeca-1(15),2(7),3,5,11,13-hexaen-8-yl)-N-[4-(trifluoromethyl)phenyl]acetamide] | 39.8 to 100 | 39.8 to 100
O=C(CN1C(=O)Cc2cc(F)ccc2-c2c1ccnc2Cl)Nc1ccc(C(F)(F)F)cc1 [#51, 2-(1-chloro-9-fluoro-6-oxo-7H-pyrido[4,3-d][3]benzazepin-5-yl)-N-[4-(trifluoromethyl)-phenyl]acetamide] | 39.8 to 100 | < 15.8
COc1nc(C)cc2c1-c1ccnn1CC(=O)N2CC(=O)Nc1ccc(C(F)(F)F)cc1 [#99, 2-(14-methoxy-12-methyl-8-oxo-5,6,9,13-tetrazatricyclo[8.4.0.0^2,6]tetradeca-1(14),2,4,10,12-pentaen-9-yl)-N-[4-(trifluoromethyl)phenyl]acetamide] | 39.8 to 100 | 100 to 501
CN1CC(c2cc3c(c(Cl)n2)-c2cccnc2CC(=O)N3CC(=O)Nc2ccc(C(F)(F)F)cc2)C1 [#170, 2-[3-chloro-5-(1-methylazetidin-3-yl)-9-oxo-4,8,12-triazatricyclo[9.4.0.0^2,7]pentadeca-1(11),2(7),3,5,12,14-hexaen-8-yl]-N-[4-(trifluoromethyl)phenyl]acetamide] | 39.8 to 100 | 39.8 to 100
Cc1cc2c(c(F)n1)-c1cccc(CO)c1CC(=O)N2CC(=O)Nc1ccc(C(F)(F)F)cc1 [#165, 2-[1-fluoro-8-(hydroxymethyl)-3-methyl-6-oxo-7H-pyrido[4,3-d][3]benzazepin-5-yl]-N-[4-(trifluoromethyl)phenyl]acetamide] | 100 to 501 | 100 to 501
O=C(CN1C(=O)Cc2cccnc2-c2cnc(Cl)cc21)Nc1ccc(Br)c(Cl)c1 [#19, N-(4-bromo-3-chloro-phenyl)-2-(13-chloro-9-oxo-3,10,14-triazatricyclo[9.4.0.0^2,7]pentadeca-1(11),2(7),3,5,12,14-hexaen-10-yl)acetamide] | 100 to 501 | 100 to 501
O=C(CN1C(=O)Cc2cccnc2-c2cnc(Cl)cc21)Nc1ccc(C(F)(F)F)cc1 [#7, 2-(13-chloro-9-oxo-3,10,14-triazatricyclo[9.4.0.0^2,7]pentadeca-1(11),2(7),3,5,12,14-hexaen-10-yl)-N-[4-(trifluoromethyl)phenyl]acetamide] | 100 to 501 | 39.8 to 100
CC1C(=O)N(CC(=O)Nc2ccc(C(F)F)cc2)c2cc(N3CC(C)(O)C3)nc(F)c2-c2cccnc21 (single isomer, unassigned) [#275, N-[4-(difluoromethyl)phenyl]-2-[3-fluoro-5-(3-hydroxy-3-methyl-azetidin-1-yl)-10-methyl-9-oxo-4,8,12-triazatricyclo[9.4.0.0^2,7]pentadeca-1(15),2,4,6,11,13-hexaen-8-yl]acetamide] | < 15.8 | < 15.8
Cc1cc2c(c(Cl)n1)-c1cccnc1C(C)C(=O)N2CC(=O)Nc1ccc(C(F)(F)F)cn1 (single isomer, unassigned) [#229, Enantiomer (10S) or (10R) of 2-[3-chloro-5,10-dimethyl-9-oxo-4,8,12-triazatricyclo[9.4.0.0^2,7]pentadeca-1(15),2,4,6,11,13-hexaen-8-yl]-N-[5-(trifluoromethyl)-2-pyridyl]acetamide] | 15.8 to 39.8 | 39.8 to 100
Cc1nc(C#N)cc2c1-c1cccnc1CC(=O)N2CC(=O)Nc1ccc(C(F)(F)F)cc1 [#167, 2-(5-cyano-3-methyl-9-oxo-4,8,12-triazatricyclo[9.4.0.0^2,7]pentadeca-1(11),2(7),3,5,12,14-hexaen-8-yl)-N-[4-(trifluoromethyl)phenyl]acetamide] | 39.8 to 100 | 15.8 to 39.8
CC1C(=O)N(CC(=O)Nc2ccc(Cl)c(F)c2)c2cc(C#N)c(F)cc2-c2cccnc21 (single isomer, unassigned) [#394, N-(4-chloro-3-fluoro-phenyl)-2-[9-cyano-10-fluoro-5-methyl-6-oxo-5H-pyrido[2,3-d][1]benzazepin-7-yl]acetamide] | 15.8 to 39.8 | 39.8 to 100
Cc1cc2c(c(Cl)n1)-c1cccnc1C(C)C(=O)N2CC(=O)Nc1ccc(C(F)(F)F)cc1F (single isomer, unassigned) [#225, Enantiomer (10S) or (10R) of N-[2-fluoro-4-(trifluoromethyl)phenyl]-2-[3-chloro-5,10-dimethyl-9-oxo-4,8,12-triazatricyclo[9.4.0.0^2,7]pentadeca-1(11),2(7),3,5,12,14-hexaen-8-yl]acetamide] | < 15.8 | < 15.8
